According to patent US20250361240A1, “PYRANOPYRIDINE COMPOUND, PROCESS FOR PREPARING THE SAME, PHARMACEUTICAL COMPOSITION AND USE THEREOF” (Zhejiang Yangli Pharmaceutical Technology Co., Ltd., priority 2024, published 2025):
pIC50: −log10 of the molar value.

Tests used:
human CYP11B1 = human CYP11B1 (Homo sapiens (Human), UniProt P15538); experiment: Inhibitory activity against hCYP11B1 in G-402 CYP11B1 high expression stable transformants (cortisol HTRF); assay type: cell-based; settings: G-402 CYP11B1 cells, 0.2 μM 11-deoxycortisol, 16 hours; read-out: hCYP11B1 Abs IC50
human CYP11B1, sequence (P15538 25-503): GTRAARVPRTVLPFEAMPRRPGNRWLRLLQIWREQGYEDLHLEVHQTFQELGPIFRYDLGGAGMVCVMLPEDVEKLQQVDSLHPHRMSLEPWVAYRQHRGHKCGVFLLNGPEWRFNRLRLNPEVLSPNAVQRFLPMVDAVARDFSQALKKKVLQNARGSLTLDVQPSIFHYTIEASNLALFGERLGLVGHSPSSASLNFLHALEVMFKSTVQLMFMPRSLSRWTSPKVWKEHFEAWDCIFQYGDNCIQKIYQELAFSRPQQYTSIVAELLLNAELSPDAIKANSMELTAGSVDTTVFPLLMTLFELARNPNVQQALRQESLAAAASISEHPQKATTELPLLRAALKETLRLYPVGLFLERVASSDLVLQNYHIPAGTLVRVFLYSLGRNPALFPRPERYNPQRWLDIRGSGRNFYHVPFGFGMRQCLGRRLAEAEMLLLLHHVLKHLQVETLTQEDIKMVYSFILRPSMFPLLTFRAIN
Experimental: 1. Experimental System: G-402 CYP11B2 or CYP11B1 High Expression Stable Transformants
The above-mentioned high-expression stable transformants were constructed based on human […] cell line G-402. The artificial lentiviruses were introduced into human CYP11B2 (NM_000498.3) and CYP11B1 (NM_000497.4), respectively.
Maintenance medium: McCoy's 5A (modified, #16600082, GIBCO)+10% FBS (GIBCO)+1 μg/mL puromycin (A1113803, GIBCO).
Resuscitation and seeding medium: McCoy's 5A (modified, #16600082, GIBCO)+10% FBS (GIBCO).
Reaction medium: DMEM/F12 (#11320033, GIBCO)+2.5% activated charcoal filtered FBS (S11695, R & D).
Seeding: Cells were cultured to a suitable state after resuscitation with maintenance medium, and 96-well flat plates were seeded with seeding medium according to 1×10^4/100 μL/well (unified cell volume).
Changing solution: The supernatant was aspirated and discarded after seeding overnight (>12 hours) and adherence. 100-150 μL/well serum-free medium was added, and after being aspirated. After aspiration, 50 μL/well reaction medium was added for later use.
Formulation: Compound was diluted with reaction medium containing 0.4 μM substrate (final experimental concentration is 0.2 μM):
CYP11B1 substrate: 11-deoxycortisol (11-deoxycortisol, S4775, selleckchem). The final reaction concentration was 0.2 μM.
Loading: The above compound dilutions were added to the cell plates at 50 μL/well. The background and control wells were set.
Treating and sampling: The cell plates were incubated in a cell incubator for 16 hours after loading, and then each cell plate was centrifuged at 450 g for 2 min. 75 μL supernatant was transferred to a collection plate and frozen at −80° C. for future use (or direct detection).
Detection: Homogeneous time-resolved fluorescence kit (Cisbio HTRF kit, Cat.64ALDPEG, Cat.62CRTPEG) was used to determine the concentration of aldosterone or cortisol in the supernatant.
Analysis: The absolute IC50 (Abs IC50) for each compound was calculated using a four parameter fit.

aldosterone synthesis = experiment: Pharmacodynamic test in cynomolgus monkeys with ACTH stimulation: aldosterone in plasma; assay type: in vivo, cynomolgus monkeys (Macaca fascicularis)
Source text: (§1) Adult cynomolgus monkeys (Macaca fascicularis) with suitable body weight and age were selected. 1 male and 1 female cynomolgus monkeys were used for experiment. The adaptation period was 1 week. On the day of the experiment, monkeys were individually housed in stainless steel mesh cages for testing.
(§2) Oral treatment and ACTH working solution (working solution diluted to the desired concentration in PBS sterile solution by ultrapure water filtration through a 0.22 μm filter using Tetracosactrin (HY-P0060, MCE)) were administered as follows: • T=0, 2 monkeys in each group were orally administered 0.5 mg/kg (compound was suspended in 5% aqueous sodium hydroxymethylcellulose solution as vehicle) in a fixed volume of 2 mL/kg; • T=+1 hour (i.e., 1 hour after administration), 14.5 μg/kg of the aforementioned ACTH working solution was injected intramuscularly.
(§3) Sampling test: Blood samples (collected in EDTA anticoagulant tubes) were collected before oral administration (Pre-dose) and 0.5 h, 1 h, 2 h, 4 h, 6 h and 12 h after administration for cortisol concentration measurement in plasma. The blood was centrifuged at 10000 rpm for 15 minutes at 4° C., followed by separation of the plasma and uniform storage at −80° C. for further analysis using an Roche biochemical analyzer to detect aldosterone and cortisol in plasma, and a portion of the plasma (0.5 h, 1 h, 2 h, 4 h, 6 h, and 12 h after administration, and an additional blood collection after 24 h) was taken simultaneously to determine the pharmacokinetic parameters by LC/MS.
(§4) The above experiment was repeated except that: T=0, two monkeys in each group were orally administered at a dose of 0.05 mg/kg (compound was suspended in 5% aqueous sodium hydroxymethylcellulose as vehicle) in a fixed volume of 2 mL/kg.

cortisol levels = experiment: Pharmacodynamic test in cynomolgus monkeys with ACTH stimulation: cortisol in plasma; assay type: in vivo, cynomolgus monkeys (Macaca fascicularis)
Source text: as §1, §2, §3, §4

[1] = 0.05 mg/kg oral, 1 h (ACTH at +1 hour)
[2] = 0.5 mg/kg oral, 1 h (ACTH at +1 hour)

Structure (SMILES): CCC(=O)N[C@@H]1CCCc2c(-c3ccc4c(c3)CCC(=O)N4C)cncc21 [Baxdrostat, reference compound]
- pIC50 (human CYP11B1): 5.47
- Aldosterone Concentration in Plasma (aldosterone synthesis; 0.05 mg/kg oral, 0.5 h): 846.13 pg/mL
- Aldosterone Concentration in Plasma (aldosterone synthesis; [1]): 964.09 pg/mL
- Aldosterone Concentration in Plasma (aldosterone synthesis; 0.05 mg/kg oral, 2 h): 568.08 pg/mL
- Aldosterone Concentration in Plasma (aldosterone synthesis; 0.05 mg/kg oral, 4 h): 119.97 pg/mL
- Aldosterone Concentration in Plasma (aldosterone synthesis; 0.05 mg/kg oral, 6 h): 101.14 pg/mL
- Aldosterone Concentration in Plasma (aldosterone synthesis; 0.05 mg/kg oral, 12 h): 139.85 pg/mL
- Aldosterone Concentration in Plasma (aldosterone synthesis; 0.05 mg/kg oral, Pre-dose): 292.42 pg/mL
- Aldosterone Concentration in Plasma (aldosterone synthesis; 0.5 mg/kg oral, 0.5 h): 593.37 pg/mL
- Aldosterone Concentration in Plasma (aldosterone synthesis; [2]): 361.74 pg/mL
- Aldosterone Concentration in Plasma (aldosterone synthesis; 0.5 mg/kg oral, 2 h): 119.96 pg/mL
- Aldosterone Concentration in Plasma (aldosterone synthesis; 0.5 mg/kg oral, 4 h): 83.97 pg/mL
- Aldosterone Concentration in Plasma (aldosterone synthesis; 0.5 mg/kg oral, 6 h): 86.11 pg/mL
- Aldosterone Concentration in Plasma (aldosterone synthesis; 0.5 mg/kg oral, 12 h): 92.61 pg/mL
- Aldosterone Concentration in Plasma (aldosterone synthesis; 0.5 mg/kg oral, Pre-dose): 126.77 pg/mL
- Cortisol Concentration in Plasma (cortisol levels; 0.05 mg/kg oral, 0.5 h): 1136.1 pg/mL
- Cortisol Concentration in Plasma (cortisol levels; [1]): 1293.5 pg/mL
- Cortisol Concentration in Plasma (cortisol levels; 0.05 mg/kg oral, 2 h): 1527.0 pg/mL
- Cortisol Concentration in Plasma (cortisol levels; 0.05 mg/kg oral, 4 h): 949.2 pg/mL
- Cortisol Concentration in Plasma (cortisol levels; 0.05 mg/kg oral, 6 h): 499.4 pg/mL
- Cortisol Concentration in Plasma (cortisol levels; 0.05 mg/kg oral, 12 h): 392.6 pg/mL
- Cortisol Concentration in Plasma (cortisol levels; 0.05 mg/kg oral, Pre-dose): 784.2 pg/mL
- Cortisol Concentration in Plasma (cortisol levels; 0.5 mg/kg oral, 0.5 h): 1004.1 pg/mL
- Cortisol Concentration in Plasma (cortisol levels; [2]): 964.8 pg/mL
- Cortisol Concentration in Plasma (cortisol levels; 0.5 mg/kg oral, 2 h): 1288.5 pg/mL
- Cortisol Concentration in Plasma (cortisol levels; 0.5 mg/kg oral, 4 h): 556.6 pg/mL
- Cortisol Concentration in Plasma (cortisol levels; 0.5 mg/kg oral, 6 h): 337.0 pg/mL
- Cortisol Concentration in Plasma (cortisol levels; 0.5 mg/kg oral, 12 h): 344.6 pg/mL
- Cortisol Concentration in Plasma (cortisol levels; 0.5 mg/kg oral, Pre-dose): 596.4 pg/mL
